{"source": "paper PMC5353688", "about": "“Both Drosophila matrix metalloproteinases have released and membrane-tethered forms but have different substrates” (Scientific Reports, 2017)", "key": {"[1]": {"target": "T1, DmMmp1 (Mmp1-PF) (Drosophila melanogaster, UniProt Q8MLN6)", "T1 construct": "full-length cDNA (541 residues), C-terminal FLAG kept, expressed in S2 cells, immunoprecipitated from conditioned media; secreted form has lost pro-domain; ~65 kDa in lysate", "T1 sequence (Q8MLN6 109-541)": "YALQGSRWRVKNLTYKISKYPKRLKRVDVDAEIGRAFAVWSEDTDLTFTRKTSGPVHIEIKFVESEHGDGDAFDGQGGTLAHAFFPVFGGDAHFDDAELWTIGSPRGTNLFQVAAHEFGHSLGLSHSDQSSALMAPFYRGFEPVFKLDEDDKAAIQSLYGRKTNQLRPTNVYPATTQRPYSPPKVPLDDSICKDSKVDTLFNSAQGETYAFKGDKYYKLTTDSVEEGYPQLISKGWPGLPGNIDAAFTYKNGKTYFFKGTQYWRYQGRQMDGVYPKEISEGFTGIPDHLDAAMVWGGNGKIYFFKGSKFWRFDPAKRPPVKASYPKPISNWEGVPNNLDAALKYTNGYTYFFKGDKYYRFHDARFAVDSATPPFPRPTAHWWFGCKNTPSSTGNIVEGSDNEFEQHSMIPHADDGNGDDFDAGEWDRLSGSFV", "type": "biochemical", "conditions": "GM6001 25 uM in sample before electrophoresis, 10 uM in renaturing and developing buffers; casein substrate; complete inhibition, no constant"}, "[2]": {"target": "T2, DmMmp2 (Drosophila melanogaster, UniProt Q8MPP3)", "T2 construct": "gene Mmp2; full-length cDNA, 3xFLAG inserted after S710 (before GPI-anchor signal), expressed in S2 cells, immunoprecipitated from conditioned media (released form); ~110 kDa in lysate", "T2 sequence (Q8MPP3 137-738)": "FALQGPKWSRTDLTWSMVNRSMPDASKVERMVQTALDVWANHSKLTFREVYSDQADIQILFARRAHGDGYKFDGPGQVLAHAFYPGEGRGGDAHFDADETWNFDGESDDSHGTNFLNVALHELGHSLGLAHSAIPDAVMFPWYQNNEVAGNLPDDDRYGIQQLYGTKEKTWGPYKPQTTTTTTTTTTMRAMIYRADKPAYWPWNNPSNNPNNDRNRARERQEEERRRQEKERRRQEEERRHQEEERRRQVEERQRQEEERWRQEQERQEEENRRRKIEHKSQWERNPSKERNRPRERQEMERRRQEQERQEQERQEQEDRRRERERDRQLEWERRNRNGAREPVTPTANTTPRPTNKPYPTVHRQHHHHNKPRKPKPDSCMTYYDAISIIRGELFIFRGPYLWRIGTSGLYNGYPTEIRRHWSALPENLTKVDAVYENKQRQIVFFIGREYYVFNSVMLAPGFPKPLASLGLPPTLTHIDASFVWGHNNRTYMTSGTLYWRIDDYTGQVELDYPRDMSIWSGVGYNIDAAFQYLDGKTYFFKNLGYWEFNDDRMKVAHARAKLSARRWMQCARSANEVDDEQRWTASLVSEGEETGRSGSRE", "assay": "gelatin zymography of FLAG immunoprecipitate", "type": "biochemical", "conditions": "GM6001 25 uM in sample before electrophoresis, 10 uM in renaturing and developing buffers; gelatin substrate; complete inhibition, no constant"}}}
{"compound": "CNC(=O)[C@H](Cc1c[nH]c2ccccc12)NC(=O)[C@@H](CC(=O)NO)CC(C)C", "note": "[GM6001]", "values": [{"measurement": "casein zymography of FLAG immunoprecipitate", "setting": "[1]", "value": "GM6001 completely inhibited Mmp1 and Mmp2 catalytic activity on zymograms"}, {"measurement": "gelatin zymography of FLAG immunoprecipitate", "setting": "[2]", "value": "GM6001 completely inhibited Mmp1 and Mmp2 catalytic activity on zymograms"}]}
